Patent publication US4925861A, “Carboxystyrene derivatives and drugs containing them as effective ingredients” (Mitsubishi Kasei Corporation, priority 1987, dated 1990)

System: not listed separately
Assay: Acute toxicity, oral, mice
Conditions: mouse, in vivo, suspension in 1% tragacanth, ddy male mice, observed for 7 days
From the text: A suspension of the compound according to the present invention in 1% tragacanth solution was orally administered to a group of 4 to 5 ddy male mice of 6 week old.

Row | SMILES | LD50 at 168 h
1 | CCCc1csc(C=Cc2cccc(C(=O)NCC(CC)(CC)C(=O)O)c2)n1 [Compound 19, 3-(N-(3-(2-(4-propyl-2-thiazolyl))ethenyl)benzoyl)amino-2,2-diethylpropionic acid] | > 1000 mg/kg
2 | CC(C)(CNC(=O)c1cccc(C=Cc2nc3ccccc3s2)c1)C(=O)O [Compound 7] | > 700 mg/kg

Target: Phospholipase A2 from Porcine Pancreas (Sus scrofa, UniProt P00592)
Assay: in vitro phospholipase inhibiting activity (DPybPC fluorescence)
Conditions: pH 8, read-out: Phospholipase A2 Inhibition (%)

Sequence of Phospholipase A2 from Porcine Pancreas (P00592 23-146): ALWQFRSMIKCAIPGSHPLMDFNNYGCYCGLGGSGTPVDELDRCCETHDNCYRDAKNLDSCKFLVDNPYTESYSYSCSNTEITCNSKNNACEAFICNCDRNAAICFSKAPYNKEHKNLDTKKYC

Row | inhibition at 10 µM | SMILES
3 | 74% | CC(C)c1csc(C=Cc2cccc(C(=O)NCC3(C(=O)O)CCCCC3)c2)n1 [Compound 22, 3-(N-(3-(2-(4-isopropyl-2-thiazolyl))ethenyl)benzoyl)amino-2-spiro-l'-cyclohexanepropionic acid]

System: SRS extracted from guinea pig lung
Assay: in vitro SRS antagonistic activity (contraction of isolated guinea pig ileum)
Type: cell-based
Conditions: Cavia porcellus, concentration reducing the control contraction (one unit of SRS) of guinea pig ileum by 50%, Tyrode's solution, 37° C., mepyramine and atropine present, read-out: Anti-SRS Activity (Minimal Effective Concentration)
Description: The terminal ileum was taken from a male Hartley guinea pig (200 to 450 g) and the lumen was washed. The ileum was set in 5 ml of a tissue bath containing Tyrode's solution: NaCl 136 mM, KCl 2.7 mM, NaHCO3 11.9 mM, MgCl2 1.05 mM, CaCl2 1.8 mM, NaH2 PO4 0.4 mM, and glucose 5.6 mM. The temperature in the bath was kept at 37° C. and the bath was aerated by 95% oxygen/5% carbon dioxide. The buffer solution also contained 10^-7 g/ml mepyramine and 5×10^-8 g/ml atropine in order to prevent the contraction caused by histamine and acetylcholine. Isometric measurement was done by an […] transducer (TD-112S, NIPPON KODEN, Japan) and change of tension in gram was recorded in a recticorder (RTG-4124, NIPPON KODEN, Japan). A tension of 0.5 g was passively loaded on the ileum. Thus, the contraction response of the ileum to SRS extracted from guinea pig lung was observed. The tonic contraction corresponding to one unit of SRS which corresponded to 5 ng of histamine was used as control. Varying concentrations of each compound to be tested were added to the tissue bath. The concentration of each compound to be tested which reduced the contraction of the control by 50%, IC50, was shown as a minimal effective concentration in M in Table 3.

Row | IC50 | SMILES
4 | 50 nM | O=C(O)c1cccc(C=Cc2ccc3ccccc3n2)c1 [Compound 3]
5 | 200 nM | O=C(O)c1cccc(C=Cc2nc3ccccc3s2)c1 [Compound 1, 3-(2-(2-benzthiazolyl))ethenylbenzoic acid]
6 | 10000 nM | O=C(O)CCCNC(=O)c1cccc(C=Cc2nc3ccccc3s2)c1 [Compound 6, 4-(N-(3-(2-(2-benzthiazolyl))ethenyl)benzoyl)aminobutyric acid]
7 | 50 nM | CC(C)c1csc(C=Cc2cccc(C(=O)O)c2)n1 [Compound 5, 3-(2-(4-isopropyl-2-thiazolyl))ethenylbenzoic acid]
8 | 20 nM | CCCc1csc(C=Cc2cccc(C(=O)O)c2)n1 [Compound 2]

Row | SMILES | IC50
9 | CC(C)(CNC(=O)c1cccc(C=Cc2nc3ccccc3s2)c1)C(=O)O [Compound 7] | 50 nM
